Measured values from US20150231090A1 (Hong Kong Baptist University, priority 2013, published 2015).

Assay: Toxicity of Guttiferone K in vivo
Design: species or system BALB/c male mice
Conditions: 1, 3, 10 mg/kg i.p. for 28 days

SMILES: CC(C)=CCC[C@@]1(C)[C@H](CC=C(C)C)C[C@]2(CC=C(C)C)C(=O)[C@@]1(CC=C(C)C)C(=O)C(C(=O)c1ccc(O)c(O)c1)=C2O [Guttiferone K]
- organ size and cell morphology of target organs (brain, heart, lung, liver, spleen, kidney): no evidence of organ size and cell morphology of target organs
